In PMC4152014, “Glucagon-Like Peptide-1 Receptor Ligand Interactions: Structural Cross Talk between Ligands and the Extracellular Domain” (PLoS ONE, 2014):
“Also recorded” adds a separate entry of the source.

Columns and labels:
[1] = tested on: nGLP-1R (N-terminal extracellular domain of GLP-1R, amino acids 24-145); assay: Differential HDX of the nGLP-1R peptide […] in the presence of ligands; assay type: binding; settings: HDX-MS; for average change in % Deuterium (Δ %D) in nGLP-1R peptide WETVQKWRE: 7TM HDX buffer pH 7.5 (50 mM Hepes, 150 mM NaCl, 2% glycerol, 0.05% DDM, 0.01% CHS), stock 10 µM nGLP-1R, peptide ligands 20 µM or small molecules 100 µM, 1 h equilibration at 4°C, on-exchange 10-3600 s, 80% D2O, 4°C, 3-4 replicates, back exchange corrected with estimated 70% recovery; for protection to exchange of nGLP-1R (result in words): peptides spanning Trp32 to Glu40 of nGLP-1R, DDM/CHS micelles, pH 7.5, 4°C, significance P < 0.05 at two consecutive time points
Description: (§1) Exendin-4 (cat # E7144), HPLC grade H2O, D2O (99.9%), acetonitrile, formic acid, tris-(carboxyethyl)-phosphinehydrochloride (TCEP), NaCl, NaH2PO4 and glycerol were purchased from Sigma-Aldrich. Exendin-4[9-39] […] The GLP-1R ligands 6-BPPI (6-(2,5-dichlorobenzyl)-1-hydroxy-2-(2-morpholin-4-ylethyl)-1,6-dihydropyrrolo[3′,4′:5,6]pyrido[3,4-B]indol-3(2H)-one), Boc-5 [23], T-0632 (sodium (S)-3-[1-(2-fluorophenyl)-2,3-dihydro-3-[(3-isoquinolinyl-carbonyl)amino]-6-methoxy-2-oxo-1H-indole]propanoate), [25] and TT15 (2S)-2-[[(8S)-7-benzoyl-3-[4-[(3,4-dichlorophenyl)methoxy]phenyl]-2-oxo-1,6,8,9-tetrahydropyrido[4,3-g][1,4]benzoxazine-8-carbonyl]amino]-3-[4-(4-cyanophenyl)phenyl]propanoic acid) were synthesized according to standard or published methods at Eli Lilly. Trifluoroacetic acid (TFA, Sequanal grade) was obtained from Pierce. High purity n-dodecyl-β-D-maltoside (DDM) and cholesterol hemisuccinate (CHS) were purchased from Avanti Polar Lipids. The porcine pepsin-immobilized POROS 20 AL beads (particle size 20 µm) used to pack immobilized pepsin columns were purchased from Applied Biosystems. The model peptide for gas phase scrambling experiments, […], was purchased from the American Peptide Company (#350416).

[2] = target: T1, wild-type GLP-1R (NP_002053) (Homo sapiens, UniProt P43220); assay: cAMP accumulation in HEK293 cells transfected with wild-type GLP-1R; assay type: cell-based; settings: for IC50: IC50, antagonism of GLP-1 induced cAMP accumulation
T1 construct: HEK293 cells were transfected with plasmids expressing either wild-type GLP-1R (NP_002053); expressed in transfected cells; host or cells: HEK293
T1 sequence (P43220 24-463): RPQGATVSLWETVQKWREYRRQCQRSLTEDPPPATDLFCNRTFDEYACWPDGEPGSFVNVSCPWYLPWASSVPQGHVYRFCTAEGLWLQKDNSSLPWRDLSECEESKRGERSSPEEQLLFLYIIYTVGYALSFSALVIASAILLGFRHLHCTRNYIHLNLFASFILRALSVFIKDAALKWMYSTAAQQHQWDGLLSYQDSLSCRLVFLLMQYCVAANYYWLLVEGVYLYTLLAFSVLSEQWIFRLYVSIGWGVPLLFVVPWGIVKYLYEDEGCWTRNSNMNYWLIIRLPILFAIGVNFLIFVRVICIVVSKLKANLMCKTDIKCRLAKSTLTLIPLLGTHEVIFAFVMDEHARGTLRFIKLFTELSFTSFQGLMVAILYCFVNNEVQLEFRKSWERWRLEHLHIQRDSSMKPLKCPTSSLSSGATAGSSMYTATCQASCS
Method: (§2) cAMP accumulation assays were performed as previously described. HEK293 cells were transfected with plasmids expressing either wild-type GLP-1R (NP_002053) or chimera nGIP-R:GLP-1R (amino acids 1-124 of GIP-R (NP_000155) fused in-frame with amino acids 137-463 of GLP-1R).
(§3) Figure 4 Changes to HDX of nGLP-1R in the Presence of Peptide and Small Molecule Ligands. […] Deuterium exchange was measured in the presence of DDM/CHS micelles as indicated in the Experimental section The exendin-4[9-39] peptide ligand is colored gray. B) Table showing the average change in % Deuterium in this same nGLP-1R peptide ([…]) for four peptide ligands and four proposed small molecule ligands.

[3] = tested on: chimera nGIP-R:GLP-1R (amino acids 1-124 of GIP-R (NP_000155) fused in-frame with amino acids 137-463 of GLP-1R); assay: cAMP accumulation in HEK293 cells transfected with chimera nGIP-R:GLP-1R; assay type: cell-based; settings: GIPR/GLP-1R chimera, EC50 to EC80 concentrations of GLP-1
Method: as §2, §3

[4] = tested on: nGLP-1R (N-terminal extracellular domain of GLP-1R, amino acids 24-145); assay: Differential HDX of peptide ligands in the presence vs absence of nGLP-1R; assay type: binding; settings: HDX-MS, stock 10 µM peptide with or without 20 µM nGLP-1R, DDM/CHS micelles, pH 7.5, 4°C; for protection to exchange of ligand amides near helix bend / FxxWL motif upon binding nGLP-1R: 10-3600 s, protection confined from Ala18 to Asn28
Description: as §1

[5] = tested on: nGLP-1R (N-terminal extracellular domain of GLP-1R, amino acids 24-145); assay: Single amino acid resolution HDX by ETD of Phe22-Ser39 peptic peptide; assay type: binding; settings: DDM/CHS micelles
Method: To optimize the instrument parameters and to monitor gas-phase scrambling, we employed the model peptide […] described by the Jorgensen group. Complete deuteration was achieved by incubation of the peptide in deuterated buffer (20 mM NaH2PO4, pH 2.6) for one hour at 4°C. HDX off-exchange was initiated by a 10-fold dilution into infusion buffer (50% MeOH, 0.5 M CH3COOH, pH 2.6) followed by elution over the same LC configuration used for HDX after 30 s of off-exchange. Under these conditions the peptide eluted in ∼1.6 minutes. Full-scan and ETD MS/MS spectra were acquired on the LTQ Orbitrap XL ETD. Instrument conditions were identical to those published previously except the capillary temperature was set to 75°C. Varying isolation widths and capillary temperatures were tested to minimize scrambling and maintain ion signal intensity (Figure S3). A capillary temperature of 75°C and isolation width of 12 amu was used for ETD of exendin-4[9-39]. Five replicates were run after 30 s of deuterium exchange for exendin-4[9-39] in the presence and absence of nGLP-1R on the same LC configuration described above.

[6] = pH 7.5
Method: All stock solutions and dilutions were made using the 7TM HDX buffer. The 7TM HDX buffers were composed of 50 mM Hepes (pH 7.5), 150 mM NaCl, 2% (v/v) glycerol, 0.05% (m/v) DDM, and 0.01% (m/v) CHS in either H2O or in D2O for on-exchange. All HDX stock solutions of the N-terminal extracellular domain of the glucagon-like peptide-1 receptor (nGLP-1R) were prepared at 10 µM nGLP-1R in the 7TM HDX H2O buffer. […] All HDX stock solutions of the peptides were at 10 µM. When ligands were studied in the presence of the nGLP-1R the stock solutions contained 20 µM nGLP-1R. When ligands and receptor were mixed in stock solutions they were allowed to equilibrate for one hour at 4°C.
Solution-phase amide HDX was carried out with a fully automated system described previously [17]. […]
Mass spectra were acquired in the range of m/z 300–2000 at a resolution of 60,000 for 8 min in positive ion mode on an LTQ Orbitrap XL ETD mass spectrometer (Thermo Fisher Scientific) equipped with an ESI source operated at capillary temperature of 225°C and spray voltage of 3.5 kV. The intensity weighted average m/z value (centroid) of each peptide's isotopic envelope was calculated with in-house developed software; Workbench (Pascal et al. 2013) and converted to % Deuterium values. […]

[7] = tested on: extracellular domain of GLP-1R; settings: cited from earlier work
[8] = 30 s of exchange, apo vs nGLP-1R bound, 5 replicates

| Molecule | average change in % Deuterium (Δ %D) in nGLP-1R peptide WETVQKWRE [1] [%] | protection to exchange of nGLP-1R (result in words) [1] | protection to exchange of ligand amides near helix bend / FxxWL motif upon binding nGLP-1R [4] | deuterium incorporation / stability of hydrogen bonding network of the free peptide [6] | affinity for extracellular domain of GLP-1R (in words) [7] | also measured |
| --- | --- | --- | --- | --- | --- | --- |
| O=C1c2ncc3c(c2C(O)N1CCN1CCOCC1)c1ccccc1n3Cc1cc(Cl)ccc1Cl (centres unmarked) [6-BPPI, 6-(2,5-dichlorobenzyl)-1-hydroxy-2-(2-morpholin-4-ylethyl)-1,6-dihydropyrrolo[3′,4′:5,6]pyrido[3,4-B]indol-3(2H)-one] | -27 | thermodynamic stabilizing interactions |  |  |  | antagonism of GLP-1 signalling (result in words) ([2]; HEK293 cells, EC50 to EC80 concentrations of GLP-1): Dose-dependent blockade of GLP-1R signalling; also recorded: effective antagonist of the GLP-1R; IC50 ([2]; 10 pM GLP-1, HEK293 cells): 33 nM; IC50 ([2]; 30 pM GLP-1, HEK293 cells): 110 nM; IC50 ([2]; 100 pM GLP-1, HEK293 cells): 310 nM; antagonism of GLP-1 signalling (result in words) [3]: not GIPR/GLP-1R; also recorded: inactive on a chimeric receptor |
| exendin-4[9-39]: N-terminal truncated exendin-4, a potent antagonist; Bachem cat # H-8740 | -20 | significant protection to exchange | showed protection to their hydrogen bonding network around the FxxWL motif | significantly destabilized in the presence of nonionic detergents as compared to the agonist exendin-4 | high affinity | deuterium incorporation for fragments from Trp25 to Asn28, absence of nGLP-1R ([5]; 30 s of exchange, apo state, 5 replicates): increasing deuterium incorporation for fragments from Trp25 to Asn28; change in deuterium incorporation at Asn28 turn in the presence of nGLP-1R [5, 8]: small but statistically significant increase in deuterium incorporation; protection at Trp25, Leu26 and Lys27 by nGLP-1R [5, 8]: Significant protection; deuterium exchanged at amide of Asn28 in the presence of nGLP-1R ([5]; exendin-4[9-39] with nGLP-1R, after 30 s of exchange, average of 5 replicates): 0.33 deuterium |
| oxyntomodulin: peptide agonist, Bachem #H-6058 | -10 | protection to exchange was observed |  |  |  |  |
| COc1cc(C2C(NC(=O)c3ccc(NC(=O)OC(C)(C)C)cc3)(C(=O)O)C(c3ccc(OC(=O)c4cccs4)c(OC)c3)C2(NC(=O)c2ccc(NC(=O)OC(C)(C)C)cc2)C(=O)O)ccc1OC(=O)c1cccs1 (centres unmarked) [Boc-5] | -12 | thermodynamic stabilizing interactions |  |  |  |  |
| exendin-4: GLP-1R peptide agonist, Sigma-Aldrich cat # E7144; DPP4 resistant mimetic | -21 | significant protection to exchange | showed protection to their hydrogen bonding network around the FxxWL motif | Lower deuterium incorporation was observed for all homologous peptides | high affinity | change in deuterium exchange at N-terminal amino acids His1 to Glu17 upon binding nGLP-1R [4]: no statistically significant change in the magnitude of deuterium exchange |
